Results taken from patent publication US9616053B2, “Indolin-2-one or pyrrolo-pyridin/pyrimidin-2-one derivatives” (Hoffmann-La Roche Inc., priority 2013, dated 2017).
Counter-ions that a name gives are not always drawn.

System: L-687,414-induced hyperlocomotion
Assay: L-687,414-induced hyperlocomotion (Digiscan locomotor activity)
Assay type: in vivo, mouse
Conditions: Mus musculus; dose ip 20 mg/kg, at the same time as s.c. 50 mg/kg L-687,414; mice
Text: The authors described that hyperlocomotion induced by L-687,414 was inhibited by a series of known antipsychotic drugs. […] These findings predict antipsychotic activity for the present compounds, making them useful for the treatment of positive (psychosis) and negative symptoms of schizophrenia, substance abuse, alcohol and drug addiction, obsessive-compulsive disorders, cognitive impairment, bipolar disorders, mood disorders, major depression, resistant depression, anxiety disorders, Alzheimer's disease, autism, Parkinson's disease, chronic pain, borderline personality disorder, sleep disturbances, chronic fatigue syndrome, stiffness, antiinflammatory effects in arthritis and balance problems.
The described compounds of formula I reduce L-687,414-induced hyperlocomotion. This was assessed by using a computerized Digiscan 16 Animal Activity Monitoring System (Omnitech Electronics, Columbus, Ohio) to quantify locomotor activity. Animals were kept under a 12 h light/dark cycle and experiments were performed during the light period. Each activity monitoring chamber consisted of a Plexiglas box (41×41×28 cm; W×L×H) with sawdust bedding on the floor surrounded by invisible horizontal and vertical infrared sensor beams. The test boxes were divided by a Plexiglas cross providing each mouse with 20×20 cm of moving space. Cages were connected to a Digiscan Analyzer linked to a computer that constantly collected the beam status information. Records of photocell beam interruptions for individual animals were taken every 5 min over the duration of the experimental session and the sum of the first 6 periods was used as the final parameter. Compounds were administered either p.o. 15 min before a s.c. injection of 50 mg/kg of L-687,414, or i.p. at the same time as a s.c. injection of 50 mg/kg of L-687,414. Mice were then transferred from their home cage to the recording chambers for a 15-min habituation phase allowing free exploration of the new environment. Horizontal activity was then recorded for a 30-min time period. The % inhibition of L-687,414-induced hyperlocomotion was calculated according to the equation: ((Veh+L-687,414 horizontal activity−drug+L-687,414 horizontal activity)Veh+L-687,414 horizontal activity)×100
ID50 values, defined as doses of each compound producing 50% inhibition of L-687,414-induced hyperlocomotion, were calculated by linear regression analysis of a dose-response data using an Excel-based computer-fitting program.
As data was not presupposed to be normally distributed, groups treated with test compounds were statistically compared with the control (vehicle-treated) group using one-tailed Mann Whitney U tests. In statistics, the Mann-Whitney Utest (also called the Mann-Whitney-Wilcoxon (MWW) or Wilcoxon rank-sum test) is a non-parametric statistical hypothesis test for assessing whether one of two samples of independent observations tends to have larger values than the other. It is one of the most well-known non-parametric significance tests. […] P values given in table 1 are one-tailed since only decreases in locomotion were expected and tested for (Mann, H. B., Whitney, D. R. (1947), “On a Test of Whether one of Two Random Variables is Stochastically Larger than the Other”, Annals of Mathematical Statistics, 18 (1), 50-60).

Row | SMILES | inhibition at 20 mg/kg
1 | Cc1cc(-c2ncc3c(n2)N(C2CC2)C(=O)C3(C)C)ccn1 [Example 114, 7-Cyclopropyl-5,5-dimethyl-2-(2-methylpyridin-4-yl)-5H-pyrrolo[2,3-d]pyrimidin-6(7H)-one] | 42%

Same assay, conditions: Mus musculus; dose ip 30 mg/kg, at the same time as s.c. 50 mg/kg L-687,414; mice

Row | SMILES | inhibition at 30 mg/kg
2 | Cc1ncc(-c2ccc3c(c2)N(C)C(=O)C3(C)C)[nH]1 [Example 67, 1,3,3-Trimethyl-6-(2-methyl-1H-imidazol-5-yl)indolin-2-one] | 42.6%
3 | CN1C(=O)C(C)(C)c2cc(F)c(-c3ccncc3)cc21 [Example 38, 5-Fluoro-1,3,3-trimethyl-6-(pyridin-4-yl)indolin-2-one] | 57.3%
4 | Cc1nnc(-c2ccc3c(c2)N(C)C(=O)C3(C)C)o1 [Example 93, 1,3,3-Trimethyl-6-(5-methyl-1,3,4-oxadiazol-2-yl)indolin-2-one] | 68.6%
5 | Cc1ncc(-c2ccc3c(c2)N(CCCF)C(=O)C3(C)C)cn1 [Example 131, 1-(3-Fluoropropyl)-3,3-dimethyl-6-(2-methylpyrimidin-5-yl)indolin-2-one] | 95.3%
6 | Cc1noc(-c2ccc3c(c2)N(C)C(=O)C3(C)C)n1 [Example 59, 1,3,3-Trimethyl-6-(3-methyl-1,2,4-oxadiazol-5-yl)indolin-2-one] | 45.2%
7 | Cc1ncc(-c2ccc3c(c2)N(CCF)C(=O)C3(C)C)cn1 [Example 132, 1-(2-Fluoroethyl)-3,3-dimethyl-6-(2-methylpyrimidin-5-yl)indolin-2-one] | 95.3%
8 | Cc1ncc(-c2ccc3c(c2)N(C)C(=O)C3(C)C)cn1 [Example 12, 1,3,3-Trimethyl-6-(2-methylpyrimidin-5-yl)indolin-2-one] | 93.7%
9 | CC1(C)C(=O)Nc2cc(-c3ccnnc3)ccc21 [Example 17, 3,3-Dimethyl-6-(pyridazin-4-yl)indolin-2-one] | 66.7%
10 | CN(C)c1ncc(-c2ccc3c(c2)N(C)C(=O)C3(C)C)cn1 [Example 11, 6-(2-(Dimethylamino)pyrimidin-5-yl)-1,3,3-trimethylindolin-2-one] | 72.2%
11 | Cc1cn(-c2ccc3c(c2)NC(=O)C3(C)C)cn1 [Example 63, 3,3-Dimethyl-6-(4-methyl-1H-imidazol-1-yl)indolin-2-one] | 68.9%
12 | O=C1N(C2CC2)c2cc(-c3cccnc3)ncc2C12CC2 [Example 140, 1′-Cyclopropyl-6′-(pyridin-3-yl)spiro[cyclopropane-1,3′-pyrrolo[3,2-c]pyridin]-2′(1′H)-one] | 69.3%
13 | Cc1nnc(-c2ccc3c(c2)N(C)C(=O)C3(C)C)s1 [Example 72, 1,3,3-Trimethyl-6-(5-methyl-1,3,4-thiadiazol-2-yl)indolin-2-one] | 67.4%
14 | Cc1cncc(C)c1-c1ccc2c(c1)N(C)C(=O)C2(C)C [Example 28, 6-(3,5-Dimethyl-pyridin-4-yl)-1,3,3-trimethyl-1,3-dihydro-indol-2-one formate] | 68.4%
15 | Cc1ncc(-c2ccc3c(c2)N(CCS(C)(=O)=O)C(=O)C3(C)C)cn1 [Example 57] | 79.9%
16 | Cc1cc(-c2cc3c(cn2)C(C)(C)C(=O)N3C)ccn1 [Example 83, 1,3,3-Trimethyl-6-(2-methyl-4-pyridyl)pyrrolo[3,2-c]pyridin-2-one] | 53%
17 | Cc1ncc(-c2ccc3c(c2)N(CC(O)C(F)(F)F)C(=O)C3(C)C)cn1 (stereo not drawn) [Example 130, 3,3-Dimethyl-6-(2-methylpyrimidin-5-yl)-1-(3,3,3-trifluoro-2-hydroxypropyl)indolin-2-one] | 89.4%
18 | CC1(C)C(=O)Nc2cc(-c3cnc(N)nc3)ccc21 [Example 16, 6-(2-Aminopyrimidin-5-yl)-3,3-dimethylindolin-2-one] | 89.4%

Row | SMILES | inhibition at 30 mg/kg
19 | Cc1cc(-c2cc3c(cn2)C2(CC2)C(=O)N3C)ccn1 [Example 136, 1′-Methyl-6′-(2-methylpyridin-4-yl)spiro[cyclopropane-1,3′-pyrrolo[3,2-c]pyridin]-2′(1′H)-one] | 89.7%
20 | CN1C(=O)C(C)(C)c2ccc(-c3cncnc3)cc21 [Example 4, 1,3,3-Trimethyl-6-(pyrimidin-5-yl)indolin-2-one] | 74.6%
21 | COCC(CN1C(=O)C(C)(C)c2ccc(-c3cnc(C)nc3)cc21)OC (stereo not drawn) [Example 175, 1-(2,3-dimethoxypropyl)-3,3-dimethyl-6-(2-methylpyrimidin-5-yl)indolin-2-one] | 95.3%
22 | Cc1ncc(-c2ccc3c(c2)N(CCCO)C(=O)C3(C)C)cn1 [Example 56, 1-(3-Hydroxypropyl)-3,3-dimethyl-6-(2-methylpyrimidin-5-yl)indolin-2-one] | 93.9%
23 | Cc1c(-c2cccnc2)ccc2c1N(C)C(=O)C2(C)C [Example 36, 1,3,3,7-Tetramethyl-6-(pyridin-3-yl)indolin-2-one] | 79.3%
24 | Cc1ncc(-c2ccc3c(c2)N(CCCOC2CC2)C(=O)C3(C)C)cn1 [Example 50, 1-(3-Cyclopropoxypropyl)-3,3-dimethyl-6-(2-methylpyrimidin-5-yl)indolin-2-one] | 86.3%
25 | Cc1cnccc1-c1ccc2c(c1)NC(=O)C2(C)C [Example 20, 3,3-Dimethyl-6-(3-methylpyridin-4-yl)indolin-2-one] | 47.5%
26 | Cc1ncc(-c2ccc3c(c2)N(CCOC(F)(F)F)C(=O)C3(C)C)cn1 [Example 128, 3,3-Dimethyl-6-(2-methylpyrimidin-5-yl)-1(2-(trifluoromethoxy)ethyl)indolin-2-one] | 66.1%
27 | Cc1cc(-c2ccc3c(c2)N(C)C(=O)C3(C)C)on1 [Example 143, 1,3,3-Trimethyl-6-(3-methylisoxazol-5-yl)indolin-2-one] | 65.7%
28 | Cn1cc(-c2ccc3c(c2)NC(=O)C3(C)C)cn1 [Example 87, 3,3-Dimethyl-6-(1-methyl-1H-pyrazol-4-yl)indolin-2-one] | 82.8%
29 | Cc1ncc(-c2ccc3c(c2)N(CC2CCC2)C(=O)C3(C)C)cn1 [Example 48, 1-(Cyclobutylmethyl)-3,3-dimethyl-6-(2-methylpyrimidin-5-yl)indolin-2-one] | 68.6%
30 | Cc1noc(-c2ccc3c(c2)NC(=O)C3(C)C)n1 [Example 60, 3,3-Dimethyl-6-(3-methyl-1,2,4-oxadiazol-5-yl)indolin-2-one] | 24%
31 | CC1(C)C(=O)Nc2cc(-c3cncnc3)ccc21 [Example 8, 3,3-Dimethyl-6-(pyrimidin-5-yl)indolin-2-one] | 52.5%
32 | Cc1ncnc(C)c1-c1ccc2c(c1)N(C)C(=O)C2(C)C [Example 31, 6-(4,6-Dimethyl-pyrimidin-5-yl)-1,3,3-trimethyl-1,3-dihydro-indol-2-one] | 81.2%
33 | CN1C(=O)C(C)(C)c2ccc(-c3cccnc3)cc21 [Example 3, 1,3,3-Trimethyl-6-(pyridin-3-yl)indolin-2-one] | 53.4%
34 | CN1C(=O)C(C)(C)c2ccc(-c3ccncc3)c(F)c21 [Example 39, 7-Fluoro-1,3,3-trimethyl-6-pyridin-4-yl-1,3-dihydro-indol-2-one] | 77.6%
35 | CN1C(=O)C(C)(C)c2ccc(-c3ccc4nccn4c3)cc21 [Example 30, 6-(Imidazo[1,2-a]pyridin-6-yl)-1,3,3-trimethylindolin-2-one] | 49.1%

Same assay, conditions: dose producing 50% inhibition of L-687,414-induced hyperlocomotion; p.o. 15 min before s.c. 50 mg/kg L-687,414; mice

Row | SMILES | ID50 po
36 | CN1C(=O)C(C)(C)c2ccc(-c3cnc4c(c3)NCCO4)cc21 [Example 25, 6-(2,3-Dihydro-1H-pyrido[2,3-b][1,4]oxazin-7-yl)-1,3,3-trimethylindolin-2-one] | 3.03 mg/kg
37 | Cc1ncc(-c2ccc3c(c2)NC(=O)C3(C)C)cn1 [Example 21, 3,3-Dimethyl-6-(2-methylpyrimidin-5-yl)indolin-2-one] | 1.62 mg/kg
38 | Cc1ncc(-c2ccc3c(c2)N(CCO)C(=O)C3(C)C)cn1 [Example 55, 1-(2-Hydroxyethyl)-3,3-dimethyl-6-(2-methylpyrimidin-5-yl)indolin-2-one] | 0.88 mg/kg
39 | CN1C(=O)C(C)(C)c2ccc(-n3ccnc3)cc21 [Example 61, 6-(1H-Imidazol-1-yl)-1,3,3-trimethylindolin-2-one] | 10.71 mg/kg
